The values below come from ChEMBL document CHEMBL3763069, “Synthesis of fluorinated carbazoles via C-H arylation catalyzed by Pd/Cu bimetal system and their antibacterial activities” (2016).

Common to all, as to assay type: functional
For assay [1], the system named is Staphylococcus aureus. In words: Antibacterial activity against methicillin-resistant Staphylococcus aureus incubated for 20 hrs by microbroth dilution method. In general terms: Broth dilution looks for growth in wells or tubes with falling amounts of substance.
Assay [2] concerns Staphylococcus aureus. In words: Antibacterial activity against Staphylococcus aureus incubated for 20 hrs by microbroth dilution method.
A further assay concerns Escherichia coli. Put plainly: Antibacterial activity against Escherichia coli incubated for 20 hrs by microbroth dilution method.
A further assay concerns Bacillus subtilis. Put plainly: Antibacterial activity against Bacillus subtilis incubated for 20 hrs by microbroth dilution method.

Converted amounts (≈) assume the structure as drawn.

In general, MIC refers to the smallest concentration in the dilution series that meets the test's criterion for growth inhibition. Low values mean inhibition by little substance, high ones a need for much substance.

For the molecule `Fc1ccc2c(c1)[nH]c1cc(F)cc(F)c12`, the MIC in the assay on Staphylococcus aureus [1] is 12.5 mg/L (≈ 56.5 µM); in the assay on Staphylococcus aureus [2], 1.56 mg/L (≈ 7.05 µM); in the assay on Escherichia coli, 25 mg/L (≈ 113 µM); with Bacillus subtilis, 3.12 mg/L (≈ 14.1 µM).
Turning to `CCc1ccc2[nH]c3c(C)ccc(F)c3c2c1`, the MIC with Staphylococcus aureus [1], against Staphylococcus aureus [2] and with Bacillus subtilis was 3.12 mg/L (≈ 13.7 µM) throughout.
As to `Fc1cc(F)c2c(c1)[nH]c1ccccc12`, the MIC in the assay on Staphylococcus aureus [1] stood at 12.5 mg/L (≈ 61.5 µM); in the assay on Staphylococcus aureus [2] it was 25 mg/L (≈ 123 µM); against Escherichia coli, 25 mg/L (≈ 123 µM); in the assay on Bacillus subtilis it was 6.25 mg/L (≈ 30.8 µM).
In the case of `Fc1ccc2[nH]c3c(F)cc(F)c(F)c3c2c1`, the MIC turned out to be 6.25 mg/L (≈ 26.1 µM) against Staphylococcus aureus [1], 1.56 mg/L (≈ 6.52 µM) with Staphylococcus aureus [2] and 3.12 mg/L (≈ 13.1 µM) in the assay with Bacillus subtilis.
On the same counts, the results for `Fc1cc(F)c2[nH]c3cc(C(F)(F)F)ccc3c2c1F` are 3.12 mg/L (≈ 10.8 µM), 0.78 mg/L (≈ 2.7 µM) and 0.78 mg/L (≈ 2.7 µM).
For `Cc1ccc(F)c2c1[nH]c1ccccc12`, the values for the MIC in the assay on Staphylococcus aureus [1], in the assay with Staphylococcus aureus [2] and with Bacillus subtilis were 12.5 mg/L (≈ 62.7 µM), 50 mg/L (≈ 251 µM) and 6.25 mg/L (≈ 31.4 µM), respectively.
Turning to `CCc1ccc2[nH]c3cc(F)cc(F)c3c2c1`, the MIC against Staphylococcus aureus [1] came to 3.12 mg/L (≈ 13.5 µM); with Staphylococcus aureus [2], 1.56 mg/L (≈ 6.75 µM); against Bacillus subtilis, 3.12 mg/L (≈ 13.5 µM).
Consider `Fc1ccc2c(c1)[nH]c1c(F)cc(F)c(F)c12`, for which the MIC in the assay on Staphylococcus aureus [1] is 6.25 mg/L (≈ 26.1 µM); against Staphylococcus aureus [2], 3.12 mg/L (≈ 13.1 µM); with Bacillus subtilis it was 3.12 mg/L (≈ 13.1 µM).
As for `CCc1ccc2[nH]c3c(F)cc(F)c(F)c3c2c1`, the MIC in the assay on Staphylococcus aureus [1], in the assay on Staphylococcus aureus [2] and against Bacillus subtilis was 3.12 mg/L (≈ 12.5 µM) throughout.
Turning to `Cc1ccc2[nH]c3cc(F)cc(F)c3c2c1`, the MIC against Staphylococcus aureus [1] is 3.12 mg/L (≈ 14.4 µM); against Staphylococcus aureus [2], 100 mg/L (≈ 460 µM); against Bacillus subtilis it was 3.12 mg/L (≈ 14.4 µM).
As to `Cc1ccc2c(c1)[nH]c1c(F)cc(F)c(F)c12`, the MIC with Staphylococcus aureus [1] turned out to be 6.25 mg/L (≈ 26.6 µM); in the assay on Staphylococcus aureus [2], 6.25 mg/L (≈ 26.6 µM); against Bacillus subtilis, 3.12 mg/L (≈ 13.3 µM).
For the molecule `Cc1ccc2[nH]c3c(C)ccc(F)c3c2c1`, the MIC in the assay with Staphylococcus aureus [1], with Staphylococcus aureus [2] and against Bacillus subtilis was 6.25 mg/L (≈ 29.3 µM) in each case.
As to `Fc1cc(F)c2c(c1)[nH]c1ccc(F)cc12`, the MIC with Staphylococcus aureus [1] came to 3.12 mg/L (≈ 14.1 µM); against Staphylococcus aureus [2], 1.56 mg/L (≈ 7.05 µM); with Escherichia coli, 12.5 mg/L (≈ 56.5 µM); in the assay with Bacillus subtilis it was 3.12 mg/L (≈ 14.1 µM).
Consider `Cc1ccc(F)c2c1[nH]c1cc(C(F)(F)F)ccc12`, for which the values for the MIC against Staphylococcus aureus [1], against Staphylococcus aureus [2] and in the assay with Bacillus subtilis were 3.12 mg/L (≈ 11.7 µM), 1.56 mg/L (≈ 5.84 µM) and 3.12 mg/L (≈ 11.7 µM), respectively.
`Cc1ccc2[nH]c3c(F)cc(F)c(F)c3c2c1`: the MIC stood at 6.25 mg/L (≈ 26.6 µM) against Staphylococcus aureus [1], 6.25 mg/L (≈ 26.6 µM) in the assay on Staphylococcus aureus [2] and 3.12 mg/L (≈ 13.3 µM) against Bacillus subtilis.
With `Cc1ccc(F)c2c1[nH]c1cc(F)ccc12`, the values for the MIC against Staphylococcus aureus [1], against Staphylococcus aureus [2] and in the assay with Bacillus subtilis were 6.26 mg/L (≈ 28.8 µM), 50 mg/L (≈ 230 µM) and 6.25 mg/L (≈ 28.8 µM), respectively.
For `Fc1cc(F)c2c(c1)[nH]c1cc(C(F)(F)F)ccc12`, the figures for the MIC in the assay with Staphylococcus aureus [1], with Staphylococcus aureus [2] and against Bacillus subtilis were 3.12 mg/L (≈ 11.5 µM), 0.39 mg/L (≈ 1.44 µM) and 0.78 mg/L (≈ 2.88 µM), respectively.
On the same counts, the results for `Cc1ccc2c(c1)[nH]c1cc(F)cc(F)c12` are 3.12 mg/L (≈ 14.4 µM), 3.12 mg/L (≈ 14.4 µM) and 3.12 mg/L (≈ 14.4 µM).
As to `Fc1cc(F)c2[nH]c3ccccc3c2c1F`, the MIC with Staphylococcus aureus [1] was found to be 12.5 mg/L (≈ 56.5 µM); in the assay with Staphylococcus aureus [2] it was 6.25 mg/L (≈ 28.3 µM); against Bacillus subtilis it was 6.25 mg/L (≈ 28.3 µM).
Turning to `CC1(C)S[C@@H]2[C@H](NC(=O)[C@H](N)c3ccccc3)C(=O)N2[C@H]1C(=O)O` [AMPICILLIN], the values for the MIC against Staphylococcus aureus [2], in the assay on Escherichia coli and against Bacillus subtilis were 0.2 mg/L (≈ 0.572 µM), 3.12 mg/L (≈ 8.94 µM) and below 0.2 mg/L, respectively.
Consider `C[C@@H](O)[C@H]1C(=O)N2C(C(=O)O)=C(S[C@@H]3CN[C@H](C(=O)N(C)C)C3)[C@H](C)[C@H]12` [MEROPENEM], for which the MIC with Staphylococcus aureus [1] worked out at 0.78 mg/L (≈ 2.03 µM); in the assay with Staphylococcus aureus [2], 0.78 mg/L (≈ 2.03 µM); against Escherichia coli it was 0.05 mg/L (≈ 0.13 µM); against Bacillus subtilis it was 3.12 mg/L (≈ 8.15 µM).
Take `CN[C@@H]1[C@H](O[C@H]2[C@H](O[C@H]3[C@H](O)[C@@H](O)[C@H](N=C(N)N)[C@@H](O)[C@@H]3N=C(N)N)O[C@@H](C)[C@]2(O)C=O)O[C@@H](CO)[C@H](O)[C@H]1O` [STREPTOMYCIN]: the MIC in the assay on Staphylococcus aureus [1] amounted to 3.12 mg/L (≈ 5.37 µM); against Staphylococcus aureus [2] it was 3.12 mg/L (≈ 5.37 µM); against Escherichia coli it was 3.12 mg/L (≈ 5.37 µM); against Bacillus subtilis it was 3.21 mg/L (≈ 5.53 µM).
